We go through 19 compounds from patent publication US20230257372A1 (CHONG KUN DANG PHARMACEUTICAL CORP., priority 2020, published 2023).

One test has as its target T1, human recombinant HDAC6 (Homo sapiens, UniProt Q9UBN7).
T1 construct: purchased Calbiochem Inc. 382180
T1 sequence (Q9UBN7 1-1215): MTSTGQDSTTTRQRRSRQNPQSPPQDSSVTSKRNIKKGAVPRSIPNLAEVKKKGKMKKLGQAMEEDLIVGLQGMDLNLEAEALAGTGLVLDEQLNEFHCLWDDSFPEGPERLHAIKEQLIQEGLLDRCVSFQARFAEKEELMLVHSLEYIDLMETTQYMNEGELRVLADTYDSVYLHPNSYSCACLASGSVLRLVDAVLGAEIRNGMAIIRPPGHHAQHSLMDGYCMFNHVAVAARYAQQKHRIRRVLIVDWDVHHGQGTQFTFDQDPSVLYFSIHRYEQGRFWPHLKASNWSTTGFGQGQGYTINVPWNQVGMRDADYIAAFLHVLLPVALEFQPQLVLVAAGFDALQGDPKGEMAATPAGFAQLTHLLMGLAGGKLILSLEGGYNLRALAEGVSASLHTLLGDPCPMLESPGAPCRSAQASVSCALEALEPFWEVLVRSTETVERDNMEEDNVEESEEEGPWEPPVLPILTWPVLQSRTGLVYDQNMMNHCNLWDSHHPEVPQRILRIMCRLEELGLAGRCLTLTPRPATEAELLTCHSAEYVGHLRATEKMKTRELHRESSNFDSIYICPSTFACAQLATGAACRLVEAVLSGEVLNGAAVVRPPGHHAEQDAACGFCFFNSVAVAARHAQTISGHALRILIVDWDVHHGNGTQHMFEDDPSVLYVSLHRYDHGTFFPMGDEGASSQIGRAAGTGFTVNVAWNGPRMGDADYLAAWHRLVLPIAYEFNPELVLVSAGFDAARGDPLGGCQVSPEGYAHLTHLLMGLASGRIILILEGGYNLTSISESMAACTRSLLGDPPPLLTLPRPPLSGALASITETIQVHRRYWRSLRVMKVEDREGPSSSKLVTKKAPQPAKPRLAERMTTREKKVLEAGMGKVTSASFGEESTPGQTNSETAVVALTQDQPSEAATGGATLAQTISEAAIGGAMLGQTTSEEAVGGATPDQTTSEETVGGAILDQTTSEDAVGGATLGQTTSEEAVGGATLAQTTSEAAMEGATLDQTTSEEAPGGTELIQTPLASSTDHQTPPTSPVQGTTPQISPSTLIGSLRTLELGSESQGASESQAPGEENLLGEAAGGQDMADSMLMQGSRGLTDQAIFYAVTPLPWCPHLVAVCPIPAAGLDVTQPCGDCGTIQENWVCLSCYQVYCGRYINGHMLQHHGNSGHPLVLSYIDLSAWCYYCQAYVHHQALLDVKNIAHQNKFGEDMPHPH
In words: HDAC6 enzyme activity inhibition (HDAC Fluorimetric Drug Discovery Kit). In kind it is biochemical. The gist of the method: (§1)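 Compounds in 5-fold dilution series were incubated with […] enzyme and 10 μM substrate at 30° C for 60 minutes. Fluor de Lys Developer II was then added for 30 minutes to stop the reaction and develop the fluorescent signal.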

In another test the target is T2, human recombinant HDAC1 (Homo sapiens, UniProt Q13547).
T2 construct: purchased Enzo Life Science, Inc. BML-SE456
The test is described as follows: HDAC1 enzyme activity inhibition (HDAC Fluorimetric Drug Discovery Kit). In kind it is biochemical. The conditions noted are these: read-out: HDAC1. The gist of the method: as §1

[1] abbreviates: human recombinant HDAC6, IC50 calculated with GraphPad Prism.
Where [2] appears, read: human recombinant HDAC1, IC50 calculated with GraphPad Prism.
[3] abbreviates: human recombinant HDAC6, same protocol as HDAC1.
Setting [4] is: human recombinant HDAC1, Fluor de Lys substrate, 30° C. 60 minutes.

Read-outs that look alike come from different tables or passages of the source.

T2 sequence (Q13547 whole entry): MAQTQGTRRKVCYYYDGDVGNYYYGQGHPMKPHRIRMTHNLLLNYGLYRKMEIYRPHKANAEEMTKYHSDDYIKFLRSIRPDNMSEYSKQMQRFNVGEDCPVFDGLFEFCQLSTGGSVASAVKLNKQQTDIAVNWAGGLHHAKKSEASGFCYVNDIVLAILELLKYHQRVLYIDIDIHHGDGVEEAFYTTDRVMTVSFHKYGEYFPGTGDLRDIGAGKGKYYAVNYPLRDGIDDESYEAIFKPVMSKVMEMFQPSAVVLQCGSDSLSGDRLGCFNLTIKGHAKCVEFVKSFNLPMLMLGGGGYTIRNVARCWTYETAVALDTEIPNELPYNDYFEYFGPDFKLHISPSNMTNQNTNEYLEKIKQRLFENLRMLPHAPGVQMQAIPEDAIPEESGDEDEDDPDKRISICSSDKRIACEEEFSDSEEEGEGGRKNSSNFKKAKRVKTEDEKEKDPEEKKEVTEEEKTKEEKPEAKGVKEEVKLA

On to `CN1CC(c2cccc(-c3cn(Cc4ccc(-c5nnc(C(F)F)o5)cc4F)nn3)c2)C1` [Compound 4460, 2-(difluoromethyl)-5-(3-fluoro-4-((4-(3-(1-methylazetidin-3-yl)phenyl)-1H-1,2,3-triazol-1-yl)methyl)phenyl)-1,3,4-oxadiazole], for which the “HDAC6 selectivity (fold)” value at human recombinant HDAC6 (HDAC1 IC50 / HDAC6 IC50) stood at 148 fold. Besides, the IC50 on human recombinant HDAC6 (setting [1]) is 337 nM; at human recombinant HDAC1 (setting [2]), above 50000 nM.

`Fc1cc(-c2nnc(C(F)F)o2)ccc1Cn1cc(-c2cccc(N3CCN(C4COC4)CC3)c2F)nn1` [Compound 4580]: the “HDAC6 selectivity (fold)” value on human recombinant HDAC6 (HDAC6 over HDAC1) stood at 1908 fold. Further, the IC50 is 26.2 nM at human recombinant HDAC6 (setting [3]) and above 50000 nM on human recombinant HDAC1 (setting [4]).

Consider `Fc1cc(-c2nnc(C(F)F)o2)ccc1Cn1cc(-c2ccc(Br)cn2)nn1` [Compound 16928, 2-(4-((4-(5-bromopyridin-2-yl)-1H-1,2,3-triazol-1-yl)methyl)-3-fluorophenyl)-5-(difluoromethyl)-1,3,4-oxadiazole], for which the “HDAC6 selectivity (fold)” value on human recombinant HDAC6 (HDAC6 over HDAC1) amounted to 586 fold. The IC50 was 85.3 nM on human recombinant HDAC6 (setting [3]) and above 50000 nM at human recombinant HDAC1 (setting [4]).

Consider `Fc1cc(-c2nnc(C(F)F)o2)cnc1Cn1cc(-c2ccc(CN3CCCC3)s2)nn1` [Compound 18059, 2-(difluoromethyl)-5-(5-fluoro-6-((4-(5-(pyrrolidin-1-ylmethyl)thiophen-2-yl)-1H-1,2,3-triazol-1-yl)methyl)pyridin-3-yl)-1,3,4-oxadiazole], for which the “HDAC6 selectivity (fold)” value on human recombinant HDAC6 (HDAC6 over HDAC1) is 1295 fold. For the same compound, the results for the IC50 on human recombinant HDAC6 (setting [3]) and on human recombinant HDAC1 (setting [4]) were 38.6 nM and above 50000 nM, respectively.

Regarding `Fc1cc(-c2nnc(C(F)F)o2)ccc1Cn1cc(-c2ccc(CN3CC[C@H](F)C3)cc2)nn1` [Compound 4606, (S)-2-(difluoromethyl)-5-(3-fluoro-4-((4-(4-((3-fluoropyrrolidin-1-yl)methyl)phenyl)-1H-1,2,3-triazol-1-yl)methyl)phenyl)-1,3,4-oxadiazole], the “HDAC6 selectivity (fold)” value on human recombinant HDAC6 (HDAC6 over HDAC1) stood at 2415 fold. Moreover, the IC50 at human recombinant HDAC6 (setting [3]) is 20.7 nM; on human recombinant HDAC1 (setting [4]), above 50000 nM.

Regarding `CN(C)CCN(C)Cc1cccc(-c2cn(Cc3ccc(-c4nnc(C(F)F)o4)cn3)nn2)c1` [Compound 3918, N1-(3-(1-((5-(5-(difluoromethyl)-1,3,4-oxadiazol-2-yl)pyridin-2-yl)methyl)-1H-1,2,3-triazol-4-yl)benzyl)-N1,N2,N2-trimethylethane-1,2-diamine], the “HDAC6 selectivity (fold)” value on human recombinant HDAC6 (HDAC1 IC50 / HDAC6 IC50) was found to be 1190 fold. Besides, the IC50 at human recombinant HDAC6 (setting [1]) is 42 nM; on human recombinant HDAC1 (setting [2]), above 50000 nM.

With `OC1(c2cn(Cc3ccc(-c4nnc(C(F)F)o4)cc3F)nn2)COC1` [Compound 4278, 3-(1-(4-(5-(difluoromethyl)-1,3,4-oxadiazol-2-yl)-2-fluorobenzyl)-1H-1,2,3-triazol-4-yl)oxetan-3-ol], the “HDAC6 selectivity (fold)” value at human recombinant HDAC6 (HDAC1 IC50 / HDAC6 IC50) came to 160 fold. Besides, the values for the IC50 at human recombinant HDAC6 (setting [1]) and on human recombinant HDAC1 (setting [2]) were 311 nM and above 50000 nM, respectively.

With `CN(C)Cc1ccc(-c2cn(Cc3ncc(-c4nnc(C(F)F)o4)cc3F)nn2)c(Cl)c1` [Compound 19098, 1-(3-chloro-4-(1-((5-(5-(difluoromethyl)-1,3,4-oxadiazol-2-yl)-3-fluoropyridin-2-yl)methyl)-1H-1,2,3-triazol-4-yl)phenyl)-N,N-dimethylmethanamine], the “HDAC6 selectivity (fold)” value at human recombinant HDAC6 (HDAC6 over HDAC1) was determined as 1315 fold. The IC50 on human recombinant HDAC6 (setting [3]) was 38 nM; on human recombinant HDAC1 (setting [4]), above 50000 nM.

For the compound `CCN1Cc2ccc(-c3cn(Cc4ccc(-c5nnc(C(F)F)o5)cc4F)nn3)cc2C1` [Compound 4516, 2-(difluoromethyl)-5-(4-((4-(2-ethylisoindolin-5-yl)-1H-1,2,3-triazol-1-yl)methyl)-3-fluorophenyl)-1,3,4-oxadiazole], the “HDAC6 selectivity (fold)” value at human recombinant HDAC6 (HDAC6 over HDAC1) is reported as 680 fold. Also, the IC50 is 73.5 nM on human recombinant HDAC6 (setting [3]) and above 50000 nM at human recombinant HDAC1 (setting [4]).

For `FC(F)c1nnc(-c2ccc(Cn3cc(-c4cccc(CN5CCC5)c4)nn3)nc2)o1` [Compound 3963, 2-(6-((4-(3-(azetidin-1-ylmethyl)phenyl)-1H-1,2,3-triazol-1-yl)methyl)pyridin-3-yl)-5-(difluoromethyl)-1,3,4-oxadiazole], at human recombinant HDAC6 (HDAC1 IC50 / HDAC6 IC50), the “HDAC6 selectivity (fold)” value came out at 841 fold. Moreover, the IC50 on human recombinant HDAC6 (setting [1]) is 59.4 nM; on human recombinant HDAC1 (setting [2]), above 50000 nM.

As to `CCCc1cn(Cc2ccc(-c3nnc(C(F)F)o3)cn2)nn1` [Compound 3831, 2-(difluoromethyl)-5-(6-((4-propyl-1H-1,2,3-triazol-l-yl)methyl)pyridin-3-yl)-1,3,4-oxadiazole], the “HDAC6 selectivity (fold)” value on human recombinant HDAC6 (HDAC1 IC50 / HDAC6 IC50) was 343 fold. Besides, the IC50 was 145 nM at human recombinant HDAC6 (setting [1]) and above 50000 nM on human recombinant HDAC1 (setting [2]).

Take `CC1CCN(Cc2cc(Cl)cc(-c3cn(Cc4ncc(-c5nnc(C(F)F)o5)cc4F)nn3)c2)CC1` [Compound 19093, 2-(6-((4-(3-chloro-5-((4-methylpiperidin-1-yl)methyl)phenyl)-1H-1,2,3-triazol-1-yl)methyl)-5-fluoropyridin-3-yl)-5-(difluoromethyl)-1,3,4-oxadiazole]: at human recombinant HDAC6 (HDAC6 over HDAC1), the “HDAC6 selectivity (fold)” value is reported as 211 fold. The IC50 on human recombinant HDAC6 (setting [3]) is 236 nM; on human recombinant HDAC1 (setting [4]), above 50000 nM.

As to `CC(C)N1CC(c2cccc(-c3cn(Cc4ccc(-c5nnc(C(F)F)o5)cn4)nn3)c2)C1` [Compound 4503, 2-(difluoromethyl)-5-(6-((4-(3-(1-isopropylazetidin-3-yl)phenyl)-1H-1,2,3-triazol-1-yl)methyl)pyridin-3-yl)-1,3,4-oxadiazole], on human recombinant HDAC6 (HDAC6 over HDAC1), the “HDAC6 selectivity (fold)” value turned out to be 4672 fold. Further, the IC50 on human recombinant HDAC6 (setting [3]) is 10.7 nM; at human recombinant HDAC1 (setting [4]), above 50000 nM.

As to `Fc1cc(-c2nnc(C(F)F)o2)ccc1Cn1cc(-c2ccc(CNC3CCC3)cc2)nn1` [Compound 4468, N-(4-(1-(4-(5-(difluoromethyl)-1,3,4-oxadiazol-2-yl)-2-fluorobenzyl)-1H-1,2,3-triazol-4-yl)benzyl)cyclobutanamine], the “HDAC6 selectivity (fold)” value at human recombinant HDAC6 (HDAC1 IC50 / HDAC6 IC50) is on record as 370 fold. In addition, the IC50 on human recombinant HDAC6 (setting [1]) is 13.5 nM; on human recombinant HDAC1 (setting [2]), above 50000 nM.

On to `CN1CC(NCc2ccc(-c3cn(Cc4ccc(-c5nnc(C(F)F)o5)cc4F)nn3)cc2)C1` [Compound 4470, N-(4-(1-(4-(5-(difluoromethyl)-1,3,4-oxadiazol-2-yl)-2-fluorobenzyl)-1H-1,2,3-triazol-4-yl)benzyl)-1-methylazetidin-3-amine], for which the “HDAC6 selectivity (fold)” value on human recombinant HDAC6 (HDAC1 IC50 / HDAC6 IC50) is 915 fold. The IC50 on human recombinant HDAC6 (setting [1]) is 54.6 nM; at human recombinant HDAC1 (setting [2]), above 50000 nM.

`C[C@@H]1CN(c2cccc(-c3cn(Cc4ncc(-c5nnc(C(F)F)o5)cc4F)nn3)c2)C[C@H](C)N1` [Compound 18893, 2-(difluoromethyl)-5-(6-((4-(3-((3R,5S)-3,5-dimethylpiperazin-1-yl)phenyl)-1H-1,2,3-triazol-1-yl)methyl)-5-fluoropyridin-3-yl)-1,3,4-oxadiazole]: the “HDAC6 selectivity (fold)” value on human recombinant HDAC6 (HDAC6 over HDAC1) was 388 fold. The IC50 at human recombinant HDAC6 (setting [3]) was 129 nM; on human recombinant HDAC1 (setting [4]) it was above 50000 nM.

Consider `FC(F)c1nnc(-c2ccc(Cn3cc(-c4cccc5c4CN(C4COC4)C5)nn3)nc2)o1` [Compound 4599, 2-(difluoromethyl)-5-(6-((4-(2-(oxetan-3-yl)isoindolin-4-yl)-1H-1,2,3-triazol-1-yl)methyl)pyridin-3-yl)-1,3,4-oxadiazole], for which the “HDAC6 selectivity (fold)” value on human recombinant HDAC6 (HDAC6 over HDAC1) came to 662 fold. In addition, the IC50 at human recombinant HDAC6 (setting [3]) was 75.5 nM; at human recombinant HDAC1 (setting [4]), above 50000 nM.

Take `Fc1cc(-c2nnc(C(F)F)o2)ccc1Cn1cc(-c2ccc(CN3CCCC3)cc2)nn1` [Compound 4521, 2-(difluoromethyl)-5-(3-fluoro-4-((4-(4-(pyrrolidin-1-ylmethyl)phenyl)-1H-1,2,3-triazol-1-yl)methyl)phenyl)-1,3,4-oxadiazole]: the “HDAC6 selectivity (fold)” value at human recombinant HDAC6 (HDAC6 over HDAC1) was 4464 fold. The IC50 was 11.2 nM on human recombinant HDAC6 (setting [3]) and above 50000 nM on human recombinant HDAC1 (setting [4]).

For the compound `FC(F)c1nnc(-c2ccc(Cn3cc(-c4ccc(CN5CCC5)cc4)nn3)cc2)o1` [Compound 4548, 2-(4-((4-(4-(azetidin-1-ylmethyl)phenyl)-1H-1,2,3-triazol-1-yl)methyl)phenyl)-5-(difluoromethyl)-1,3,4-oxadiazole], the “HDAC6 selectivity (fold)” value at human recombinant HDAC6 (HDAC6 over HDAC1) came out at 4545 fold. Moreover, the IC50 was 13.1 nM on human recombinant HDAC6 (setting [3]) and above 50000 nM on human recombinant HDAC1 (setting [4]).
